The target in assay [1] is T1, Histone-lysine N-methyltransferase NSD2 (Homo sapiens, UniProt O96028).
T1 sequence (O96028 whole entry): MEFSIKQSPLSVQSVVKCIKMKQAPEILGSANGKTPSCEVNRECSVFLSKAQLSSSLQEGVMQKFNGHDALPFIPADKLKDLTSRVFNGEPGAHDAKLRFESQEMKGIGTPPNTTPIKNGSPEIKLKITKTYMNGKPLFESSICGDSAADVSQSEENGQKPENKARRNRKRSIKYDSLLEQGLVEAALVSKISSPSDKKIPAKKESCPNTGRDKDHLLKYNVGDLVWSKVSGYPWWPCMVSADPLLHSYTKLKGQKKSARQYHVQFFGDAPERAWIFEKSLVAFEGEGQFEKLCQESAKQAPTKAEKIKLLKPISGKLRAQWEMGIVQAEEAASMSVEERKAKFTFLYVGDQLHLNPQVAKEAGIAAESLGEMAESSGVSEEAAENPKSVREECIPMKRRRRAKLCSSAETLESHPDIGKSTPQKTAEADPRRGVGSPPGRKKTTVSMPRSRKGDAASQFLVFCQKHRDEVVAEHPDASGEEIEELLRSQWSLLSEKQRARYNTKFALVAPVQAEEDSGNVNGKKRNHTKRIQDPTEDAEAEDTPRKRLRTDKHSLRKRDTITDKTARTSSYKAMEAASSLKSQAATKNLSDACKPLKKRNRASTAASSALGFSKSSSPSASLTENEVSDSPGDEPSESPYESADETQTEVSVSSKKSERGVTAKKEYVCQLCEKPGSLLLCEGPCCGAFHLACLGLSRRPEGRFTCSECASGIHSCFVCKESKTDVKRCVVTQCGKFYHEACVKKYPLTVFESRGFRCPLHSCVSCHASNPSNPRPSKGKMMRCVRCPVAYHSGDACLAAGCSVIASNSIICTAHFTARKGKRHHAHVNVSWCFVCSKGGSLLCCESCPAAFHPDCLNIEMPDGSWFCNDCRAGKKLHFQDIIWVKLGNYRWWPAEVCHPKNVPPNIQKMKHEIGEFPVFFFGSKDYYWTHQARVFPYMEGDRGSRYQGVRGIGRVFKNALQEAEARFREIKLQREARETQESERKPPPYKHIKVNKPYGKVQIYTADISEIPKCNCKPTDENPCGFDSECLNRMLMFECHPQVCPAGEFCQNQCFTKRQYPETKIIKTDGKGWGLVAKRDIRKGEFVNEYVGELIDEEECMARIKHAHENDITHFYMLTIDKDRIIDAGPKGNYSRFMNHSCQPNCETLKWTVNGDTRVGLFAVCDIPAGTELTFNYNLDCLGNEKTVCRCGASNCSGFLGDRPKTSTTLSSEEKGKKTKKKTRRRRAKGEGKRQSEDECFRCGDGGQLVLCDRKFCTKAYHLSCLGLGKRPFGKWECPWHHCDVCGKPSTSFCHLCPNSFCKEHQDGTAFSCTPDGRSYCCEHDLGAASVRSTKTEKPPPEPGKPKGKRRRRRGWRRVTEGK
It counts as biochemical.

Assay [2] concerns the target T2, 1-phosphatidylinositol 4,5-bisphosphate phosphodiesterase gamma-1 (Homo sapiens, UniProt P19174).
T2 sequence (P19174 whole entry): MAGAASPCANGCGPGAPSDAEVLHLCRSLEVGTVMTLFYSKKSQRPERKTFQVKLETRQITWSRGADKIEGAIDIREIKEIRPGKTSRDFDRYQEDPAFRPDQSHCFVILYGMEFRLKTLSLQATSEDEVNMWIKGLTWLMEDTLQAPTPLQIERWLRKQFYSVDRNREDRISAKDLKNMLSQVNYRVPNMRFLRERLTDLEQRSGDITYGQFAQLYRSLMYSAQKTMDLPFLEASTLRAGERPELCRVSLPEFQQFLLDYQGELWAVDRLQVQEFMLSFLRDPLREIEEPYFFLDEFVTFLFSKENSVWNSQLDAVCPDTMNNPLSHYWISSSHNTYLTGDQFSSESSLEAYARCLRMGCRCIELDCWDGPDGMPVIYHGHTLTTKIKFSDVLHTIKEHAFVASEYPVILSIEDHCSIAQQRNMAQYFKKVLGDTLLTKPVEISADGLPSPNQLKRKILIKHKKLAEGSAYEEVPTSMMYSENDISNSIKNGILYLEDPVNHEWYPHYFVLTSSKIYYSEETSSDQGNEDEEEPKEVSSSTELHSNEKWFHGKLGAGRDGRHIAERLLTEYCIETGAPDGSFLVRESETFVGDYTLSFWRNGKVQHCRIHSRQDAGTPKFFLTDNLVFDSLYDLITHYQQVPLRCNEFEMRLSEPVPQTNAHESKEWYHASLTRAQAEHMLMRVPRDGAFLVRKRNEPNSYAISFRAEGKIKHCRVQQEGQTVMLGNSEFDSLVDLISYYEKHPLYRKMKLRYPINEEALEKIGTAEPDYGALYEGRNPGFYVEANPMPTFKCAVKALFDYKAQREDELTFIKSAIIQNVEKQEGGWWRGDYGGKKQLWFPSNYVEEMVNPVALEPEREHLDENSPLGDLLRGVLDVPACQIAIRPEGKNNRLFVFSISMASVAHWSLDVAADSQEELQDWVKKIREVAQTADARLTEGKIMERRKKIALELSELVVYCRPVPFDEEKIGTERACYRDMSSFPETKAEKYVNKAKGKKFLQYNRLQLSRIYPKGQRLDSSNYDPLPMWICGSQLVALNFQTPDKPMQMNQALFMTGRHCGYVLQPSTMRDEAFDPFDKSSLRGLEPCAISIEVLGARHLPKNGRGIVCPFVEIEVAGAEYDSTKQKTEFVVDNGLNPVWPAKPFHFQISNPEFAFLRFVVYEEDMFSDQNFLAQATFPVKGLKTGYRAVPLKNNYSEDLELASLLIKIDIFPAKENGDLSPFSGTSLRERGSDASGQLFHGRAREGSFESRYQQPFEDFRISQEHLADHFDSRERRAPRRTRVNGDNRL
As to the kind of experiment: Counterscreen for inhibitors of phospholipase C isozymes (PLC-B3): Fluorescence-based biochemical high throughput dose response assay to identify inhibitors of phospholipase C isozymes (PLC-gamma1). (In general: A counterscreen serves to expose hits that act by an unwanted route or on another target.)

Assay [3] has as its target Proto-oncogene tyrosine-protein kinase receptor Ret (Homo sapiens, UniProt P07949). The class given is functional.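 Also: measured within a kinome-wide profiling panel, RET as the panel member.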
Assay [4] deals with Cyclin-dependent kinase 9 (Homo sapiens, UniProt P50750). It counts as functional.
Sequence of Cyclin-dependent kinase 9 (P50750 whole entry): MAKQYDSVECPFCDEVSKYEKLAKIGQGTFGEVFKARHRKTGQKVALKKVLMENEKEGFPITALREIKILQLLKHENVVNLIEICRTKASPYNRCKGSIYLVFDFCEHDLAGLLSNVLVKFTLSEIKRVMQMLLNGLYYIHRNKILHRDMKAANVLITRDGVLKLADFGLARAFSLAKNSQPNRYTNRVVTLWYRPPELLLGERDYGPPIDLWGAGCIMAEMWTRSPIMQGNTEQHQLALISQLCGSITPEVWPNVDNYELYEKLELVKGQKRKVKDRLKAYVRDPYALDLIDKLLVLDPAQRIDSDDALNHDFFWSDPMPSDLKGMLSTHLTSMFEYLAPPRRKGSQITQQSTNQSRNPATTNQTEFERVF
Assay [5] deals with Sphingosine 1-phosphate receptor 2 (Homo sapiens, UniProt O95136). As to the kind of experiment: Dose Response Cell Based Assay for Antagonists of the S1P2 Receptor. [Related pubchem assays: 856, 736 ]. It counts as functional.
Sequence of Sphingosine 1-phosphate receptor 2 (O95136 whole entry, the tested form may be a part): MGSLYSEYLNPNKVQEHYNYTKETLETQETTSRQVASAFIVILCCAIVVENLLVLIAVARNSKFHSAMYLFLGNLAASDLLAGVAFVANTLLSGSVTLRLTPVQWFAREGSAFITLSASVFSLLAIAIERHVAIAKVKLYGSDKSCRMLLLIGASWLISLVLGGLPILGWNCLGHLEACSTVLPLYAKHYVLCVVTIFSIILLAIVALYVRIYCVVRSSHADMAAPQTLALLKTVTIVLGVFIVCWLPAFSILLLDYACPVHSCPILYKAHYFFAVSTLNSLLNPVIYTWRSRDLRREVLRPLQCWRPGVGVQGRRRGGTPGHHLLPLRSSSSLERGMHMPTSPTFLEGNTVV
The nature of assay [6]: CEM21 lymphoblast cell cytotoxicity, dose response, cytotoxicity control for viral fusion inhibitor project, CellTiter-Glo luminescence, cherry-picked (AID 652042).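 Also: potency for signal decrease meaning cytotoxicity.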 The class given is functional, cell-based.

Activity calls are given as the source filed them. Some results are limits rather than exact numbers.

Sequence of Proto-oncogene tyrosine-protein kinase receptor Ret (P07949 whole entry): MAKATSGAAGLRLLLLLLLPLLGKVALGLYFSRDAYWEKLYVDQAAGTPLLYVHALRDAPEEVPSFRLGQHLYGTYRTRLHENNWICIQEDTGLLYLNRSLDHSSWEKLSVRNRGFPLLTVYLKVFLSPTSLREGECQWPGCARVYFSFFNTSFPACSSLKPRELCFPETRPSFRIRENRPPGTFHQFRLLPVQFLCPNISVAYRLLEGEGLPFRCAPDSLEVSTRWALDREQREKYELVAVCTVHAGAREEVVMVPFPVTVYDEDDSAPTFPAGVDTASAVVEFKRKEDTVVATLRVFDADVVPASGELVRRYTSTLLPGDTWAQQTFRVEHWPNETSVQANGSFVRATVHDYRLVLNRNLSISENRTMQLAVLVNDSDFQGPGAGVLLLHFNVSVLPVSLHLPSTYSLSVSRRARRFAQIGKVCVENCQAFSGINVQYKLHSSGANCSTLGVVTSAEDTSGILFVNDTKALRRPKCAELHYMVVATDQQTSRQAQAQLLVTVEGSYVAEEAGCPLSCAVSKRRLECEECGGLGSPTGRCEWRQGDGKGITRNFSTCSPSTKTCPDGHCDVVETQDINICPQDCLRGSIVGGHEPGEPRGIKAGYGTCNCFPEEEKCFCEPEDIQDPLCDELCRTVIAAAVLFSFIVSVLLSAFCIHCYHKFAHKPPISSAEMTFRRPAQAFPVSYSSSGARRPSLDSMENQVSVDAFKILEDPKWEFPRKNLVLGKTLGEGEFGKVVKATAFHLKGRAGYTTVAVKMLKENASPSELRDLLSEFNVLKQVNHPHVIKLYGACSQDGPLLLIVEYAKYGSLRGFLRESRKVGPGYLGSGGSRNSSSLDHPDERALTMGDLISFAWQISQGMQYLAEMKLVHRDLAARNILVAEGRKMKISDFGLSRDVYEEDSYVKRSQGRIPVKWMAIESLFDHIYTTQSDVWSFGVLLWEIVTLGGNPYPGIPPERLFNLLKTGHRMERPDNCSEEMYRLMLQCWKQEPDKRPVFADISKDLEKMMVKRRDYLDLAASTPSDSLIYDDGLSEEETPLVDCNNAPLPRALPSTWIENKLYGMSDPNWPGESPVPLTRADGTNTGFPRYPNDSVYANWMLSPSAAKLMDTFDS

The AC50 is the concentration at which the activity in the assay is half-maximal. In general, IC50 refers to the point on the concentration scale where inhibition reaches its midpoint. Consider `O=C(O)CC(C(=O)O)N1C(=O)/C(=C/C=C/c2ccco2)SC1=S` (stereo unspecified), for which the AC50 in assay [1] was 4160 nM (active). Also, the IC50 in assay [2] is > 1510 nM (active). In general, Ki refers to the equilibrium dissociation constant of an inhibitor or competing ligand from its target. On to `O=C(Nc1cccc(C2Nc3ccc4ccccc4c3C3C=CCC32)c1)c1ccc(F)cc1` (stereo unspecified), for which the Ki was > 3160 nM (inactive) in assay [3] and 251 nM (active) in assay [4]. As to `Cc1ccc(C(=O)OCn2ncc(Cl)c(Cl)c2=O)cc1`, the IC50 in assay [5] was 2650 nM (active). For `CCCC(=O)NC(c1cccs1)c1cc(Cl)c2cccnc2c1O` (stereo unspecified), the concentration at half-maximal activity (AC50) in assay [6] is 25100 nM (active).

Values taken from ChEMBL document CHEMBL1201862, “PubChem BioAssay data set” (2004).
